Assay results as given in patent publication US20230218555A1, “CREATINE, ITS DERIVATIVES, COMPOSITIONS AND METHODS OF USE THEREOF” (priority 2021, published 2023).

Columns and labels:
Assay type in all cases: in vivo, human
[1] = tested on: osteoarthritis of numerous joints; experiment: Example 19: abdominal subcutaneous injections
Protocol: A physician subject with continually worsening, for 15-16 years, painful osteoarthritis of numerous joints (almost entire spine, wrists, right shoulder, knees and most recently the feet) on one day at 11:30 AM self injected subcutaneously the right abdominal area with 3 ml of a sterile aqueous solution that they had prepared containing N-acetyl ethyl creatinate 1%, arginine 0.25%, pH 7. Using 1 ml insulin syringes with short 8 mm needles 1 ml of the solution was injected into each of 3 sites. Ten minutes later their whole body was 95+% pain free and remained so for 3.5 hours when pain was sensed to be returning. Pain in usual severity returned within another 20-30 minutes.
The next day at 9:00 AM the subject injected 5 sites, each with 1 ml of the same solution. Within 10 minutes their whole body again was 95+% pain free. This almost complete pain free state was maintained for 4 hours when very mild pain in the knees was sensed. Pain in knees and in cervical spine returned to usual degree of severity within an ensuing period of about 20 minutes.

[2] = tested on: migraine headaches and associated symptoms; experiment: Example 29: migraine headache
Protocol: A subject, with a history of migraine headaches and associated symptoms, presented with a recurrent episode of such that had begun during their night of sleep. Symptoms included an intense frontal headache, and feeling of light dizziness, and nausea when they turned their head. They were provided a 9% solution of C15 dissolved in WEP 532 to be applied to the forehead and temporal areas as needed to relieve symptoms. […] Relief lasted for 1-4 hours during the first day of use, and during the second day of use, the subject experienced a much longer period of relief of symptoms.

painful right elbow = experiment: Example 24: osteoarthritis, elbow
Protocol: A subject presented with a history of painful right elbow for several weeks. They were provided with a topical solution of C15 8% in WP 82.
A subject with a history of right elbow for several months applied the above same solution to the elbo
On three other occasions, C15 1.5% aqueous solution 1 ml was injected subcutaneously in two lateral sites of the elbow and one site over extensor part of the elbow.

[3] = tested on: osteoarthritis of multiple joints; experiment: Example 18: whole body application
Protocol: A subject with continually worsening very painful osteoarthritis of multiple joints for 15-16 years prepared the following formulation: […]
N-Acetyl Ethyl Creatinate (C15): Water: Propylene glycol: Mineral Oil: Sodium lauryl sulfate […].
After taking a morning shower, the entire 40 ml formulation was applied by themself and their assistants to their entire body, except the scalp. […] The subject was without any sense of pain for 4.5 hours when mild painful discomfort in the neck was sensed. Over the next 3 hours pain in all joints returned to usual substantial levels.

thermal burns = experiment: Example 22: pain of thermal burns, topical; conditions: for relief of burn pain: person
Excerpt: One subject spilled boiling hot water on their left hand. Within a couple hours pain was intense. They then applied 4% solution of N-acetyl ethyl creatinate (C15) dissolved in water: ethanol: propylene glycol 5:3:2 which they had been using to relieve pain over a lateral meniscus. […] Such application was continued over the next several days until the burn pain disappeared spontaneously.
A second subject burned their forearm where they accidentally touched the hot oven rack. They immediately applied 9% solution of N-acetyl ethyl creatinate (C15) dissolved in water: ethanol: propylene glycol 5:3:2 that they were using for topical treatment of their rheumatoid arthritis. […] Repeated application were applied over the next 3 days, until the burn pain spontaneously ceased.

poison ivy dermatitis = experiment: Example 36: poison ivy dermatitis itch
Protocol: A subject developed poison ivy dermatitis of their forearms about 18 hours after pruning bushes. Itch was intense at 24 hours when they applied C15 10% in a lotion made up of hydrophilic ointment USP 35% diluted with 65% water. […] Duration of itch relief next was for about 10 hours and the next for 12-15 hours. Relief was longer and longer from subsequent applications. Signs and symptoms of dermatitis were gone at 4 days.

sprained left ankle = experiment: Example 27: ankle sprain pain; conditions: 4% in WP 82, 2-3 times daily for 4-5 days
Excerpt: A subject sprained their left ankle while hiking.

painful right shoulder = experiment: Example 24: osteoarthritis, shoulder
Excerpt: The same subject above has had painful right shoulder for several months.

[4] = tested on: osteoarthritis of the knees; experiment: Example 24: osteoarthritis, knees
Excerpt: Several days later, a repeated application of the same procedure gave the same results.

[5] = tested on: Aphthous Ulcers (Canker Sores); experiment: Example 20: aphthous ulcers (canker sores), topical
Excerpt: Two eroded painful sites 2-3 mm in diameter on the right side of the tongue worsened over 2 days in a subject. At bedtime of the 2nd day, the subject topically applied C15 3% in water: propylene glycol 8:2.

painful left knee = experiment: Example 10: acute knee pain after physical trauma
Excerpt: A subject with painful left knee gave a history of physical trauma to the left knee while cleaning their house. Degree of pain was sufficiently intense that it required them to wear a knee brace throughout the day, daily. […] The subject was provided a formulation of N-acetyl ethyl creatinate 1.5% dissolved in water: propylene glycol 8:2 for topical application.

CCOC(=O)CN(C)C(N)=NC(C)=O [Compound C15, N-acetyl ethyl creatinate]
whole body pain free ([1]; 3 ml of 1% solution (arginine 0.25%, pH 7), 1 ml into each of 3 abdominal sites, subcutaneous): ≥ 95%
duration of pain free state ([1]; 3 ml, 3 sites): 3.5 h
time to pain free state ([1]; 3 ml, 3 sites): Ten
duration of pain free state ([1]; 5 sites, each 1 ml): 4 h
time to pain free state ([1]; 5 sites, each 1 ml): ≤ 10 min
whole body pain free ([1]; next day, 5 sites, each 1 ml of the same solution): ≥ 95%
relief of symptoms ([2]; 9% in WEP 532, to forehead and temporal areas): relieved symptoms within a few minutes
duration of relief ([2]; first day of use): 1 to 4 h
symptoms at end of third day ([2]; following 3 more applications): symptoms were no longer detectable
follow-up ([2]; next week): remained symptoms free over the next week of follow-up
extent of pain relief (painful right elbow; 1.5% aqueous solution 1 ml subcutaneous, three sites of elbow, person): complete relief of pain
duration of relief (painful right elbow; 1.5% subcutaneous): 24 to 30 h
time to pain relief (painful right elbow; 1.5% subcutaneous): within an hour
relief of pain (painful right elbow; 8% in WP 82, topical multiple times, person): No pain relieve was experienced
duration of relief (painful right elbow; 8% in WP 82, topical, person): 5 to 6 h
relief of pain (painful right elbow; 8% in WP 82, topical, person): relieved pain instantaneously completely
extent of pain relief ([3]; 40 ml formulation applied to entire body except scalp, person): all pain ceased in all previously painful joints
duration without any sense of pain ([3]; whole body application): 4.5 h
time to pain relief ([3]; whole body application): about 5 minutes
relief of burn pain (thermal burns; 4% in water: ethanol: propylene glycol 5:3:2, topical, hand): immediate relief of the burn pain
duration of relief (thermal burns; 4% solution): 4 to 5 h
relief of burn pain (thermal burns; 9% in water: ethanol: propylene glycol 5:3:2, topical, forearm): Burn pain was completely instantly relieved
duration of relief (thermal burns; 9% solution): 4 to 5 h
relief of itch (poison ivy dermatitis; 10% in lotion (hydrophilic ointment USP 35%, water 65%), forearms): Relief of itch was immediate
duration of itch relief (poison ivy dermatitis; first application): about 6 hours
time until signs and symptoms of dermatitis were gone (poison ivy dermatitis; repeated applications): 4 days
duration of itch relief (poison ivy dermatitis; second application): about 10 hours
duration of itch relief (poison ivy dermatitis; third application): 12 to 15 h
ankle pain at end of treatment (sprained left ankle): no ankle pain was detected
duration of relief (painful right shoulder; subcutaneous 1 ml): 6 to 7 days
extent of pain relief (painful right shoulder; subcutaneous 1 ml of 1.5% aqueous solution, three occasions, person): complete relief of pain
duration of pain relief ([4]; 8% in WP 82, even with occlusion, person, severe osteoarthritis): 3 to 4 h
extent of pain relief ([4]; 8% in WP 82 on gauze wrapping occluded with plastic wrap, overnight, person): complete relief of pain
duration of complete relief (sleep) ([4]; 8% with occlusion overnight): 8 h
diminishment of pain after removal in the morning ([4]; 8% with occlusion, person): 85-90%
duration of diminishment after removal ([4]; 8% with occlusion, person): 7 to 8 h
extent of pain relief ([5]; 3% in water: propylene glycol 8:2, topical to tongue): Complete pain relief
clinical sign of lesions next day ([5]; 3% topical): No clinical sign of the lesions could be detected next day
return of pain ([5]; 3% topical): remained pain free throughout the night and did not return
time to pain relief ([5]; 3% topical): within less than a minute
time to pain relief after application (painful left knee; 1.5% in water: propylene glycol 8:2, topical): about 2 minutes
extent of pain relief (painful left knee; 1.5% in water: propylene glycol 8:2, topical, person): pain in the knee completely vanished
recurrence of pain (painful left knee; at report 10 days later): Pain had not recurred
